Experimental data as given in publication PMC7561186, “Rational design of balanced dual-targeting antibiotics with limited resistance” (PLoS Biology, 2020).
Where two headings read alike, the source gives them in different places.

Tested on: S. aureus clinical isolates
Experiment: microbe, parasite or virus in culture
Type: cell-based
Settings: Staphylococcus aureus, read-out: MIC

Measured: MIC

CC[C@H]1OC(=O)[C@H](C)[C@@H](O[C@H]2C[C@@](C)(OC)[C@@H](O)[C@H](C)O2)[C@H](C)[C@@H](O[C@@H]2O[C@H](C)C[C@H](N(C)C)[C@H]2O)[C@](C)(O)C[C@@H](C)CN(C)[C@H](C)[C@@H](O)[C@]1(C)O [Azithromycin]
8 mg/L: MSSA / NRS 17 / VISA, S. aureus IHMA 1308247, NRS17, MSSA / VISA
16 mg/L: MRSA, S. aureus IHMA 1612228, MRSA / VSSA
0.5 mg/L: MRSA / NRS 21 / VISA, S. aureus IHMA 649388, NRS21, MRSA / VISA | MRSA, S. aureus IHMA 1580300, MRSA / VSSA | MRSA, S. aureus IHMA 1588127, MRSA / VSSA | MRSA, S. aureus IHMA 1592755, MRSA / VSSA | MRSA, S. aureus IHMA 1703428, MRSA / VSSA | MSSA / NRS 12 / VISA, S. aureus IHMA 1308244, NRS12, MSSA / VISA | MSSA / NRS 14 / VISA, S. aureus IHMA 1308246, NRS14, MSSA / VISA | MSSA, S. aureus IHMA 1569499, MSSA / VSSA | MSSA, S. aureus IHMA 1574202, MSSA / VSSA | MSSA, S. aureus IHMA 1591459, MSSA / VSSA | MSSA, S. aureus IHMA 1626392, MSSA / VSSA
32 mg/L: MRSA, S. aureus IHMA 1584223, MRSA / VSSA | MRSA, S. aureus IHMA 1720350, MRSA / VSSA | MSSA, S. aureus IHMA 1594297, MSSA / VSSA
> 32 mg/L: MRSA / NRS 3 / VISA, S. aureus IHMA 1308243, NRS3, MRSA / VISA | MRSA / NRS 4 / VISA, S. aureus IHMA 649380, NRS4, MRSA / VISA | MRSA / NRS 18 / VISA, S. aureus IHMA 649386, NRS18, MRSA / VISA | MRSA / NRS 19 / VISA, S. aureus IHMA 649387, NRS19, MRSA / VISA | MRSA / NRS 22 / USA600 / VISA, S. aureus IHMA 649389, NRS22, MRSA / VISA, USA600 | MRSA / NRS 23 / VISA, S. aureus IHMA 649390, NRS23, MRSA / VISA | MRSA / NRS 24 / VISA, S. aureus IHMA 649391, NRS24, MRSA / VISA | MRSA / NRS 26, S. aureus IHMA 649392, NRS26, MRSA / VSSA | MRSA / NRS 27 / VISA, S. aureus IHMA 1308248, NRS27, MRSA / VISA | MRSA / NRS 29 / VISA, S. aureus IHMA 1308250, NRS29, MRSA / VISA | MRSA / NRS 37 / VISA, S. aureus IHMA 1308251, NRS37, MRSA / VISA | MRSA / NRS 54, S. aureus IHMA 1308253, NRS54, MRSA / VSSA* (*Expected VAN intermediate, confirmed VAN susceptible twice), test date 2018-11-07 | MRSA / NRS 56 / VISA, S. aureus IHMA 1308254, NRS56, MRSA / VISA | MRSA / USA100 / VRSA, S. aureus IHMA 672230, VRS1, MRSA / VRSA, USA100 | MRSA / USA100 / VRSA, S. aureus IHMA 672231, VRS2, MRSA / VRSA, USA100 | MRSA / USA100 / VRSA, S. aureus IHMA 672234, VRS4, MRSA / VRSA, USA100 | MRSA / USA100 / VRSA, S. aureus IHMA 672235, VRS5, MRSA / VRSA, USA100 | MRSA / USA100 / VRSA, S. aureus IHMA 672237, VRS7, MRSA / VRSA, USA100 | MRSA / USA100 / VRSA, S. aureus IHMA 672238, VRS8, MRSA / VRSA, USA100 | MRSA / USA100 / VRSA, S. aureus IHMA 672239, VRS9, MRSA / VRSA, USA100 | MRSA / USA100 / VRSA, S. aureus IHMA 1308256, VRS10, MRSA / VRSA, USA100 | MRSA / USA100 / VRSA, S. aureus IHMA 1308258, VRS11b, MRSA / VRSA, USA100 | MRSA / USA800 / VRSA, S. aureus IHMA 672233, VRS3b, MRSA / VRSA, USA800 | MRSA, S. aureus IHMA 1569509, MRSA / VSSA | MRSA, S. aureus IHMA 1575268, MRSA / VSSA | MRSA, S. aureus IHMA 1577820, MRSA / VSSA | MRSA, S. aureus IHMA 1580940, MRSA / VSSA | MRSA, S. aureus IHMA 1582100, MRSA / VSSA | MRSA, S. aureus IHMA 1583795, MRSA / VSSA | MRSA, S. aureus IHMA 1585316, MRSA / VSSA | MRSA, S. aureus IHMA 1587322, MRSA / VSSA | MRSA, S. aureus IHMA 1592776, MRSA / VSSA | MRSA, S. aureus IHMA 1597106, MRSA / VSSA | MRSA, S. aureus IHMA 1602095, MRSA / VSSA | MRSA, S. aureus IHMA 1611170, MRSA / VSSA | MRSA, S. aureus IHMA 1611612, MRSA / VSSA | MRSA, S. aureus IHMA 1620441, MRSA / VSSA | MRSA, S. aureus IHMA 1695391, MRSA / VSSA | MRSA, S. aureus IHMA 1732989, MRSA / VSSA | MRSA, S. aureus IHMA 1742231, MRSA / VSSA | MSSA / NRS 28 / VISA, S. aureus IHMA 1308249, NRS28, MSSA / VISA | MSSA / USA100 / VRSA, S. aureus IHMA 672236, VRS6, MSSA / VRSA, USA100 | MSSA, S. aureus IHMA 1569754, MSSA / VSSA | MSSA, S. aureus IHMA 1575779, MSSA / VSSA | MSSA, S. aureus IHMA 1580233, MSSA / VSSA | MSSA, S. aureus IHMA 1582691, MSSA / VSSA | MSSA, S. aureus IHMA 1597120, MSSA / VSSA | MSSA, S. aureus IHMA 1597125, MSSA / VSSA | MSSA, S. aureus IHMA 1602078, MSSA / VSSA | MSSA, S. aureus IHMA 1609919, MSSA / VSSA
1 mg/L: ATCC 29213 / MSSA, S. aureus ATCC 29213, MSSA / VSSA, test date 2018-10-25 (three repeat lines) | ATCC 29213 / MSSA, S. aureus ATCC 29213, MSSA / VSSA, test date 2018-11-07 | MRSA, S. aureus IHMA 1575629, MRSA / VSSA | MRSA, S. aureus IHMA 1586780, MRSA / VSSA | MRSA, S. aureus IHMA 1591462, MRSA / VSSA | MRSA, S. aureus IHMA 1621638, MRSA / VSSA | MRSA, S. aureus IHMA 1622252, MRSA / VSSA | MRSA, S. aureus IHMA 1622527, MRSA / VSSA | MRSA, S. aureus IHMA 1766357, MRSA / VSSA | MSSA / NRS 13 / VISA, S. aureus IHMA 1308245, NRS13, MSSA / VISA | MSSA, S. aureus IHMA 1563826, MSSA / VSSA | MSSA, S. aureus IHMA 1565492, MSSA / VSSA | MSSA, S. aureus IHMA 1575652, MSSA / VSSA | MSSA, S. aureus IHMA 1576329, MSSA / VSSA | MSSA, S. aureus IHMA 1577800, MSSA / VSSA | MSSA, S. aureus IHMA 1578560, MSSA / VSSA | MSSA, S. aureus IHMA 1580925, MSSA / VSSA | MSSA, S. aureus IHMA 1580955, MSSA / VSSA | MSSA, S. aureus IHMA 1582586, MSSA / VSSA | MSSA, S. aureus IHMA 1584230, MSSA / VSSA | MSSA, S. aureus IHMA 1587279, MSSA / VSSA | MSSA, S. aureus IHMA 1592749, MSSA / VSSA | MSSA, S. aureus IHMA 1592751, MSSA / VSSA | MSSA, S. aureus IHMA 1599157, MSSA / VSSA | MSSA, S. aureus IHMA 1599506, MSSA / VSSA | MSSA, S. aureus IHMA 1604609, MSSA / VSSA | MSSA, S. aureus IHMA 1622864, MSSA / VSSA | MSSA, S. aureus IHMA 1713793, MSSA / VSSA
0.25 mg/L: MRSA, S. aureus IHMA 1666371, MRSA / VSSA | MSSA / NRS 52, S. aureus IHMA 1308252, NRS52, MSSA / VSSA* (*Expected VAN intermediate, confirmed VAN susceptible twice), test date 2018-11-07 | MSSA, S. aureus IHMA 1604586, MSSA / VSSA
